From publication PMC12154458, “High-Throughput Screens of Repurposing Hub and DOS Chemical Libraries Reveal Compounds with Novel and Potent Inhibitory Activity Against the Essential Non-Neuronal Acetylcholinesterase of Schistosoma mansoni (SmTAChE)” (International Journal of Molecular Sciences, 2025)
Like-named read-outs stand apart in the source and are kept apart here.

Experiments:
[1] = target: T1, rSmTAChE (Schistosoma mansoni, UniProt A0A3Q0KMM5); experiment: biochemical
[2] = target: T1, rSmTAChE; type: biochemical; conditions: for IC50: read-out: qAC50 (IC50), rSmTAChE
[3] = target: recombinant human acetylcholinesterase, rHsAChE (Homo sapiens, UniProt P22303); experiment: biochemical
[4] = read-out: qAC50 (IC50), rHsAChE
[5] = read-out: rSmTAChE HTS Inhibition (Ave, %)
[6] = dose response analysis of Drug Repurposing Hub hits against rHsAChE
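For Inhibition (%) (Average) in this document: mostly 20 µM final but a few compounds at 5 or 10 µM.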
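For Inhibition (%) Replicate A in this document: mostly 20 µM final but a few compounds at 5 or 10 µM.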
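For Inhibition (%) Replicate B in this document: mostly 20 µM final but a few compounds at 5 or 10 µM.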

T1 sequence (A0A3Q0KMM5 27-661 limits assumed): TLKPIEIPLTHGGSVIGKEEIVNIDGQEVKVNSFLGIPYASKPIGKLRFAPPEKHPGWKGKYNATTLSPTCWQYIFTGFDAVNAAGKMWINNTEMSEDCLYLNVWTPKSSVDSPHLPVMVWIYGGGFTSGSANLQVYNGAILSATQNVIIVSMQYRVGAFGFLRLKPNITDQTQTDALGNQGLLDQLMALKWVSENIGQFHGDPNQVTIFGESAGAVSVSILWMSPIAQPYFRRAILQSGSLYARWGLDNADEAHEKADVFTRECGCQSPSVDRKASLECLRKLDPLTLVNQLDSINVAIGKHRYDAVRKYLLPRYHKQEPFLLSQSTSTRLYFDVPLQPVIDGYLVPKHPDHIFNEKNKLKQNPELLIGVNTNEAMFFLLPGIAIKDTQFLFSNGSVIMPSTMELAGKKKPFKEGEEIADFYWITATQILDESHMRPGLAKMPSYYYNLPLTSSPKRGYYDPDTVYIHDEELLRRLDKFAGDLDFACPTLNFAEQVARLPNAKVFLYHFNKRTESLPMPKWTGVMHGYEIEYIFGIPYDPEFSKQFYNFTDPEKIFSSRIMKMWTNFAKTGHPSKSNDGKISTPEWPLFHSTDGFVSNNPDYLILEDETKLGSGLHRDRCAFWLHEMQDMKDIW
Chain of recombinant human acetylcholinesterase, rHsAChE (P22303 32-614): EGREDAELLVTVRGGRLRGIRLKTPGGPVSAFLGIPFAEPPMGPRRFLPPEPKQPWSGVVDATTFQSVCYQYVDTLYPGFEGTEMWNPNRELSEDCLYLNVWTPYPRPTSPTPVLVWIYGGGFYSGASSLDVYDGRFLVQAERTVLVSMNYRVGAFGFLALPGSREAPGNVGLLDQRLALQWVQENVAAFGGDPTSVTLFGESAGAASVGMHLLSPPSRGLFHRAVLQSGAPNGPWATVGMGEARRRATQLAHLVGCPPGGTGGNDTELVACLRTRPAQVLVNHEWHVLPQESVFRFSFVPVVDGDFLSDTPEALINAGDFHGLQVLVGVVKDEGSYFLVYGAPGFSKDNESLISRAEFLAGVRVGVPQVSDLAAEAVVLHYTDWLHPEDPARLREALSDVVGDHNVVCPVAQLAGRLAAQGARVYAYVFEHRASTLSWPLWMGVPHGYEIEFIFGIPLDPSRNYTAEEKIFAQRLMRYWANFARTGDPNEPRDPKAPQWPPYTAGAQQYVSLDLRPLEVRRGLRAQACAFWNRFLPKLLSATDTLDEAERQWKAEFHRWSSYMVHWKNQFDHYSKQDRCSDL

Row | Compound | Inhibition (%) (Average) [1] | Inhibition (%) Replicate A [1] | Inhibition (%) Replicate B [1] | Data Mode (curve class), rSmTAChE [2] | Data Mode (curve class), rHsAChE [3] | rSmTAChE Data Mode [2] | rHsAChE Data Mode [3] | other results
1 | CCCCc1oc2ccccc2c1C(=O)c1cc(I)c(OCCN(CC)CC)c(I)c1 [BRD-K17561142-003-35-8] | 69.46% | 66.24% | 72.67% | decreasing (weakly active) | decreasing (weakly active) |  |  | IC50 [2]: > 38 µM; IC50 [3, 4]: > 38 µM
2 | CCCCC(=O)O[C@H]1CC[C@H]2[C@@H]3CCc4cc(O)ccc4[C@H]3CC[C@]12C [BRD-K66766661-001-19-2] | 77.12% | 78.67% | 75.58% | inactive | decreasing |  |  | IC50 [3, 4]: 29.4 µM
3 | COc1ccc(NC(=O)Nc2ccc3c(c2)[C@@H]2C[C@H](CC(=O)NCc4ccc5c(c4)OCO5)O[C@@H](CO)[C@@H]2O3)cc1 [BRD-K27599706-001-01-0] | 78.59% | 80.15% | 77.03% |  |  | decreasing (weakly active) | decreasing (weakly active) | 
4 | Cc1c(C(=O)NN2CCCCC2)nn(-c2ccc(Cl)cc2Cl)c1-c1ccc(Cl)cc1 [BRD-K13296708-001-05-8] | 75.13% | 74.54% | 75.71% | decreasing (weakly active) | inactive |  |  | IC50 [2]: > 38 µM
5 | C[C@H](CO)N1C[C@H](C)[C@@H](CN(C)C(=O)Nc2cc(F)ccc2F)Oc2cc(-c3cccc(C#N)c3)ccc2S1(=O)=O [BRD-K72311435-001-01-2] | 61.10% | 61.21% | 60.99% |  |  | inactive | decreasing (weakly active) | 
6 | CCOC(=O)C1=C(C)NC(C)=C(C(=O)OCC)C1c1ccccc1/C=C/C(=O)OC(C)(C)C [BRD-K43586850-001-02-9] | 95.79% | 92.71% | 98.87% | inactive | inactive |  |  | 
7 | CC1CCCCOC(CN(C)C(=O)Nc2cccc3ccccc23)C(C)CN(C(C)CO)C(=O)c2cc(N(C)C)ccc2O1 (stereo not drawn) [BRD-K85440939-001-01-5] |  |  |  |  |  | decreasing |  | inhibition at 20 µM [1, 5]: 63.9%; IC50 (µM) rHsAChE ([3]; Table 2, DOS-A library, Inactive = inactive at the maximum tested concentration (40 µM)): Inactive *
8 | O=C(Nc1ccc(Cl)cc1)Nc1ccc(Cl)c(Cl)c1 [BRD-K25029121-001-05-8] | 85.20% | 84.59% | 85.82% | inactive | decreasing (weakly active) |  |  | IC50 [3, 4]: > 38 µM
9 | O=C(NCCCCN1CCN(c2cccc(Cl)c2Cl)CC1)c1ccc2c(c1)Cc1ccccc1-2 [BRD-K05181084-003-04-5] | 62.08% | 63.93% | 60.23% | inactive | inactive |  |  | 
10 | C[C@]12CC[C@@H]3c4ccc(O)cc4C[C@@H](CCCCCCCCC[S+]([O-])CCCC(F)(F)C(F)(F)F)[C@H]3[C@@H]1CC[C@@H]2O (stereo partly drawn) [BRD-A85667082-001-11-9] | 64.36% | 64.01% | 64.71% | inactive | decreasing (weakly active) |  |  | IC50 [3, 4]: > 13.5 µM
11 | CCCCc1oc2ccc(NS(C)(=O)=O)cc2c1C(=O)c1ccc(OCCCN(CCCC)CCCC)cc1 [BRD-K05524748-003-04-4] | 75.77% | 74.52% | 77.02% | decreasing (weakly active) | decreasing (weakly active) |  |  | IC50 [2]: > 38 µM; IC50 [3, 4]: > 38 µM
12 | CC(C)(Sc1cc(C(C)(C)C)c(O)c(C(C)(C)C)c1)Sc1cc(C(C)(C)C)c(O)c(C(C)(C)C)c1 [Probucol, reference compound] |  |  |  | decreasing (weakly active) |  |  |  | inhibition at 20 µM [1, 5]: 93.7%; SI (Sm/Hs) [3]: 5.36; IC50 ([3]; IC50 (µM) rHsAChE): 7.09 µM; Data Mode (curve class), rHsAChE [3, 6]: decreasing
13 | COc1ccc(NC(=O)Nc2ccc3c(c2)[C@@H]2C[C@H](CC(=O)NCc4ccc5c(c4)OCO5)O[C@H](CO)[C@@H]2O3)cc1 [BRD-K77518191-001-01-1] | 88.00% | 87.37% | 88.63% |  |  | decreasing (weakly active) | inactive | 
14 | O=C(C[C@@H]1C=C[C@@H](NC(=O)c2ccncc2)[C@H](CO)O1)Nc1ccc(-c2ccccc2)cc1 [BRD-K45095313-001-01-2] | 61.11% | 60.65% | 61.57% |  |  | inactive | inactive | 
15 | C[C@]12CCC3c4ccc(OC(=O)c5ccccc5)cc4CCC3C1CC[C@@H]2O (stereo partly drawn) [BRD-A74765037-001-01-1] | 66.55% | 67.53% | 65.56% | inactive | inactive |  |  | 
16 | O=C(O)Cn1nnc(-c2cc(N3CCC(Oc4cc(F)ccc4Br)CC3)no2)n1 [MK-8245, reference compound] |  |  |  | decreasing |  |  |  | inhibition at 20 µM [1, 5]: 71.5%; SI (Sm/Hs) [3]: 4.71; IC50 ([3]; Table 3, read-out: IC50 (µM) rHsAChE): 7.93 µM; Data Mode (curve class), rHsAChE [3, 6]: decreasing
17 | COC(=O)C1=C(C)NC(C)=C(C(=O)OC(C)(C)CN(C)CCC(c2ccccc2)c2ccccc2)C1c1cccc([N+](=O)[O-])c1 (stereo not drawn) [BRD-A18992208-003-02-7] | 78.14% | 77.49% | 78.79% | inactive | inactive |  |  | 
18 | COc1ccc(NC(=O)Nc2ccc3c(c2)[C@@H]2C[C@H](CC(=O)NCc4ccccn4)O[C@@H](CO)[C@@H]2O3)cc1 [BRD-K62846431-001-01-3] | 77.92% | 78.02% | 77.82% |  |  | decreasing (weakly active) | decreasing (weakly active) | 
19 | C[C@H](NC(=O)C[C@H]1C[C@H]2c3cc(NC(=O)Nc4ccc(C(F)(F)F)cc4)ccc3O[C@H]2[C@H](CO)O1)c1ccccc1 [BRD-K17686770-001-01-8] | 68.45% | 70.27% | 66.63% |  |  | decreasing (weakly active) | inactive | 
20 | COc1ccc(C#Cc2ccc3c(c2)O[C@@H](CN(C)S(=O)(=O)c2ccccc2F)[C@@H](C)CN([C@@H](C)CO)S3(=O)=O)cc1 [BRD-K10241968-001-01-1] | 63.03% | 63.23% | 62.84% |  |  | inactive | inactive | 
21 | Cc1cn2nc([C@@H]3CCCCN3C(=O)c3cc(Cl)ccc3NS(C)(=O)=O)cc2nc1N1CC[C@H](N)C1 [Presatovir, reference compound] |  |  |  | decreasing |  |  |  | inhibition at 20 µM ([1]; read-out: HTS/rSmTAChE Inhibition (Ave, %)): 66.9%; Data Mode (curve class), rHsAChE [3, 6]: decreasing (weakly active)
22 | CC(C)Oc1ccc(-c2nn([C@@H](C)c3oc4ccc(F)cc4c(=O)c3-c3cccc(F)c3)c3ncnc(N)c23)cc1F [BRD-K52579889-001-01-9] | 65.60% | 66.50% | 64.70% | decreasing (weakly active) | inactive |  |  | IC50 [2]: > 38 µM
23 | COc1ccc(NC(=O)Nc2ccc3c(c2)[C@H]2C[C@@H](CC(=O)NCc4ccccn4)O[C@H](CO)[C@H]2O3)cc1 [BRD-K96625719-001-01-4] | 74.63% | 75.38% | 73.88% |  |  | decreasing (weakly active) | inactive | 
